One data set deals with endogenous TFEB. The data set can be described thus: TFEB nuclear translocation, immunocytochemistry high-content imaging. The class given is cell-based. The following applies: PKIS2 primary screening.
For another data set, the system named is endogenous TFE3. The data set can be described thus: TFE3 nuclear translocation, immunocytochemistry high-content imaging. The class given is cell-based. The following applies: PKIS2 primary screening.
For data set [1], the system named is SH-SY5Y cells. The following applies: PKIS2 primary screening; for DQ Intensity: DQ Red BSA intensity; for DQ Spot: DQ Red BSA spot count.
From the text: The PKIS2 Library was supplied by The Structural Genomics Consortium at the University of North Carolina at Chapel Hill.
Data set [2] concerns SH-SY5Y cells. The experiment in a line: AK (adenylate kinase) release ToxiLight cytotoxicity assay. Further: reference of the scale not given here. The following applies: PKIS2 primary screening.
The test system of data set [3] is SH-SY5Y cells. The data set can be described thus: Nuclear count from microscopy images (cellular growth and toxicity). Further: reference of the scale not given here. The following applies: PKIS2 primary screening.

Structures are written as SMILES.
Wherever DQ Intensity is given: reference of the scale not given here.
Wherever DQ Spot is given: reference of the scale not given here.

In the data set with endogenous TFEB, `COc1ccc(Nc2nccc(N3CCC(NC(=O)Nc4cccc(OC)c4)C3)n2)cc1` (stereo not drawn) [GSK1379742] displayed a TFEB % of 8.93%. In the data set on endogenous TFE3, this compound showed a TFE3 % of 16.87%. Moreover, in the data set with SH-SY5Y cells [1], the “DQ Intensity” value was found to be 119.16 and the “DQ Spot” value amounted to 99.38. The same compound returned an AK in the data set with SH-SY5Y cells [2] of 126.78. In the data set on SH-SY5Y cells [3], the “Nuclear Count” value came out at 103.65.

`COc1ccc(Nc2nccc(N3CCC(NC(=O)Nc4ccc5c(c4)OCO5)C3)n2)cc1` (stereo not drawn) [GSK1379745] returned a TFEB % in the data set with endogenous TFEB of 10.83%. The compound also yielded a TFE3 % in the data set with endogenous TFE3 of 19.51%. Further, in the data set on SH-SY5Y cells [1], the “DQ Intensity” value came to 69.10 and the “DQ Spot” value was 77.91. Further, the AK with SH-SY5Y cells [2] worked out at 76.28. In the data set with SH-SY5Y cells [3], the “Nuclear Count” value is given as 86.22.

For the compound `COC(=O)c1cccc(NC(=O)NC2CCN(c3ccnc(Nc4ccc(OC)cc4)n3)C2)c1` (stereo not drawn) [GSK1379746], the TFEB % in the data set on endogenous TFEB came to 6.50%. The TFE3 % with endogenous TFE3 turned out to be 11.39%. For the same compound, in the data set with SH-SY5Y cells [1], the “DQ Intensity” value came out at 97.94 and the “DQ Spot” value was found to be 97.45. For the same compound, in the data set with SH-SY5Y cells [2], the AK was 99.00. In addition, in the data set with SH-SY5Y cells [3], the “Nuclear Count” value is 105.57.

`COc1ccc(CNC(=O)NC2CCN(c3ccnc(Nc4cc(OC)c(OC)c(OC)c4)n3)C2)cc1` (stereo not drawn) [GSK1379748] showed a TFEB % in the data set with endogenous TFEB of 3.68%. In the data set with endogenous TFE3, this compound returned a TFE3 % of 7.30%. Also, in the data set with SH-SY5Y cells [1], the “DQ Intensity” value is 92.45 and the “DQ Spot” value stood at 91.07. The AK with SH-SY5Y cells [2] turned out to be 124.35. For the same compound, in the data set with SH-SY5Y cells [3], the “Nuclear Count” value was 99.04.

Consider `COc1cc(Nc2nccc(N3CCC(NC(=O)c4cccc(C#N)c4)C3)n2)cc(OC)c1OC` (stereo not drawn) [GSK1379751], for which the TFEB % in the data set on endogenous TFEB was found to be 5.62%. This compound registered a TFE3 % with endogenous TFE3 of 13.31%. For the same compound, in the data set with SH-SY5Y cells [1], the “DQ Intensity” value was found to be 80.41 and the “DQ Spot” value was found to be 103.20. In the data set on SH-SY5Y cells [2], the AK is 124.29. Besides, the “Nuclear Count” value with SH-SY5Y cells [3] was found to be 92.57.

In the data set with endogenous TFEB, `COc1cc(Nc2nccc(N3CCC(NC(=O)Nc4cccc(C(C)=O)c4)C3)n2)cc(OC)c1OC` (stereo not drawn) [GSK1379753] returned a TFEB % of 2.90%. In addition, the TFE3 % in the data set on endogenous TFE3 amounted to 10.72%. For the same compound, in the data set with SH-SY5Y cells [1], the “DQ Intensity” value was determined as 96.48 and the “DQ Spot” value was 93.76. In the data set with SH-SY5Y cells [2], this compound gave an AK of 112.38. For the same compound, the “Nuclear Count” value in the data set on SH-SY5Y cells [3] came to 116.36.

In turn, `COc1cc(Nc2nccc(N3CCC(NC(=O)c4cccc(NC(C)=O)c4)C3)n2)cc(OC)c1OC` (stereo not drawn) [GSK1379754] showed a TFEB % with endogenous TFEB of 3.28%. In the data set with endogenous TFE3, this compound returned a TFE3 % of 7.67%. Moreover, in the data set with SH-SY5Y cells [1], the “DQ Intensity” value is listed as 91.71 and the “DQ Spot” value came to 95.86. The AK in the data set with SH-SY5Y cells [2] was determined as 115.02. In the data set on SH-SY5Y cells [3], the “Nuclear Count” value is 143.24.

`COc1cc(Nc2nccc(N3CCC(NC(=O)C(C)c4ccc(Cl)cc4)C3)n2)cc(OC)c1OC` (stereo not drawn) [GSK1379757] returned a TFEB % in the data set with endogenous TFEB of 5.14%. The compound further displayed a TFE3 % in the data set on endogenous TFE3 of 15.24%. In addition, in the data set with SH-SY5Y cells [1], the “DQ Intensity” value is reported as 100.22 and the “DQ Spot” value is reported as 95.49. Further, the AK in the data set with SH-SY5Y cells [2] was determined as 97.54. Moreover, the “Nuclear Count” value in the data set with SH-SY5Y cells [3] turned out to be 80.40.

In the data set on endogenous TFEB, `COc1cc(Nc2nccc(N3CCC(NC(=O)c4cc5ccccc5s4)C3)n2)cc(OC)c1OC` (stereo not drawn) [GSK1379760] displayed a TFEB % of 5.00%. For the same compound, in the data set with endogenous TFE3, the TFE3 % was 8.33%. In the data set on SH-SY5Y cells [1], the “DQ Intensity” value is 67.71 and the “DQ Spot” value is 93.69. For the same compound, the AK with SH-SY5Y cells [2] worked out at 89.79. In the data set with SH-SY5Y cells [3], the “Nuclear Count” value worked out at 107.53.

In the data set with endogenous TFEB, `COc1cc(Nc2nccc(N3CCC(NC(=O)C4COc5ccccc5O4)C3)n2)cc(OC)c1OC` (stereo not drawn) [GSK1379761] registered a TFEB % of 2.44%. The same compound came in with a TFE3 % with endogenous TFE3 of 10.33%. In the data set with SH-SY5Y cells [1], the “DQ Intensity” value came out at 95.14 and the “DQ Spot” value is 97.75. Also, in the data set on SH-SY5Y cells [2], the AK amounted to 96.01. Also, the “Nuclear Count” value in the data set on SH-SY5Y cells [3] is on record as 125.75.

As for `COc1cc(Nc2nccc(N3CCC(NC(=O)Nc4cc(C)ccc4C)C3)n2)cc(OC)c1OC` (stereo not drawn) [GSK1379762], in the data set on endogenous TFEB, the TFEB % was found to be 7.03%. Besides, in the data set on endogenous TFE3, the TFE3 % is given as 14.40%. Also, in the data set with SH-SY5Y cells [1], the “DQ Intensity” value is 110.39 and the “DQ Spot” value amounted to 96.86. Further, the AK in the data set with SH-SY5Y cells [2] worked out at 74.55. Besides, in the data set on SH-SY5Y cells [3], the “Nuclear Count” value stood at 111.04.

The record behind these values is paper PMC9851200, “Multiparameter phenotypic screening for endogenous TFEB and TFE3 translocation identifies novel chemical series modulating lysosome function” (Autophagy, 2022).
